Like-named read-outs stand apart in the source and are kept apart here.
What was measured:
[1] = In vitro NO release test (incubation with L-cysteine, OD at 550 nm); details: 100 μM solution with cysteine solution, 37° C.
Description: • (1) Sodium nitrite solutions with different concentrations were prepared. A calibration curve was drawn. • (2) The sample was treated. A 100 μM solution was prepared. 2.5 mL of the prepared compound solution and 2.5 mL of the cysteine solution were taken and incubated at 37° C. for 120 min, and the resulting mixture was sampled at different time points. • (3) A blank hole and a standard hole were set. 160 μL of the sample was collected and mixed evenly with 0.08 mL of a developer and stood at 37° C. for 15 min. At λ=550 nm, the OD value of absorbance was measured by the enzyme marker. The NO release levels were obtained by substituting the value into the standard curve.

[2] = test system: SW620; assay: In vitro anti-tumor activity evaluation test (CCK-8), SW620; format: cell-based, human; details: SW620, 72 h; for inhibition at 1 µM: read-out: Inhibitory rates against tumor cell lines; for IC50: read-out: IC50 against different tumor cell lines
Description: (§1) • (1) Cells were digested and counted. Cell suspensions (H520, SW620 5.0×10^4 cells/mL, and U87MG 3.5×10^4 cells/mL) were prepared. 100 μL of cell suspension was added to each well of a 96-well cell culture plate. • (2) The 96-well cell culture plate was incubated in a 37° C., 5%, CO2 incubator for 24 h. • (3) A drug was diluted with a culture medium to a desired working solution concentration. 100 μL of the corresponding drug-containing culture medium was added to each well. At the same time, a negative control group and a positive control group were set up. • (4) The 96-well cell culture plate was incubated in a 37° C., 5%, CO2 incubator for 72 h. • (5) The 96-well plate was stained with CCK-8, and at λ=450 nm, the OD value was determined. • 1) 10 μL of CCK-8 was added to each well. The culture plate continued to be incubated in the incubator for 2-3 h. • 2) The culture plate was rocked for 10 min to gently mix and remove air bubbles from the 96-well plate. • 3) At λ=450 nm, the OD value of each well was read by the enzyme marker, and the inhibitory rates were calculated. • (6) According to the following equation (1), the growth inhibitory rate of the tumor cells was obtained. The obtained results were substituted into an IC 50 calculation software SPSS17.0 to find out the IC50 value.

[3] = test system: U87MG; assay: In vitro anti-tumor activity evaluation test (CCK-8), U87MG; format: cell-based, human; details: U87MG, 72 h; for inhibition at 1 µM: read-out: Inhibitory rates against tumor cell lines; for IC50: read-out: IC50 against different tumor cell lines
Description: as §1

[4] = test system: NCI-H520; assay: In vitro anti-tumor activity evaluation test (CCK-8), NCI-H520; format: cell-based, human; details: NCI-H520, 72 h; for inhibition at 1 µM: read-out: Inhibitory rates against tumor cell lines; for IC50: read-out: IC50 against different tumor cell lines
Description: as §1

[5] = test system: human brain glioma U87MG-LUC; assay: In vivo anti-tumor activity against malignant brain glioma (in situ U87MG-LUC model); parameters: species or system BABLc/nude mice; details: for growth of malignant brain gliomas in mice: after administration for 3 weeks; for brain weight / living and physical conditions of mice / tumor volume / bioluminescence signal intensity of gliomas: versus model group; for bioluminescence signal intensity of gliomas: which increases rapidly
Excerpt: • Source, germ line, strain: BABLc/nude mice, provided by Shanghai Slaughter Laboratory Animal Co., Ltd., China. • Experimental animal production license: SOCK (Shanghai) 2017-0005 • Certificate of Conformity No.: 20170005040021 • Experimental animal use license: SYXK (Su) 2017-0040 • Age: 4-5 weeks • Sex: female • Number of animals: 5 animals per group, 15 animals in total Experimental Instrument: • Small animal in vivo 3D imaging system Spectrum, PerkinElmer
The cultured human brain glioma U87MG-LUC cell suspension with a concentration of 5×10^7 cells/mL was collected and each animal was inoculated in situ with 20 μL of the cell suspension. 10% chloral hydrate was injected intraperitoneally to anesthetize the mice, and the heads of the mice were fixed with a stereotaxic instrument. The skin of the head was disinfected with an alcohol swab. The skin of the head was cut along the direction of midline of the brain at its slightly right. The right hemisphere was taken as the reference point for fontanelle, 2 mm to the right of the midline, and 1 mm in front as the entry point, and the skull was ground open with a micro-abrasive drill. The cells were fully resuspended with a gun head, a syringe was used to extract the cell suspension. A vertical needle fixed by a stereotaxic instrument was used to feed 3.5 mm and quit 0.5 mm, then stood for 1 min and slowly injected the cells. After injection, the needle was stood for 1 min and slowly withdrawn. Alcohol swabs were used to disinfect the skin, and mice were put back into the feeding cages to wake up naturally after suturing the skin with stitches.
After 14 days of cell inoculation, the animals were randomly grouped, with 5 animals in each group. At the same time, each group of nude mice began to administer drugs. The drug administration protocol is shown in the group and drug administration protocol. At the end of the experiment, the nude mice were executed immediately. The brain tissues were surgically stripped, photographed, and weighed.
Two animals in each group were selected and injected intraperitoneally with Luc bioluminescence signal substrate, 100 μL/each animal, before administration, 1 week, 2 weeks, and 3 weeks after drug administration, respectively. 10 min later, the mice were anesthetized with isoflurane and placed on black box loading platform of an instrument for in vivo imaging detection to observe the bioluminescence signal of in situ tumors in mice's brains.

Row | Compound | IC50 ([3]; Homo sapiens, U-87 MG) [nM] | IC50 ([4]; Homo sapiens) [nM] | living and physical conditions of mice [5] | NO-release concentrations ([1]; 5 min) [µM] | NO-release concentrations ([1]; 10 min) [µM] | NO-release concentrations ([1]; 20 min) [µM] | NO-release concentrations ([1]; 30 min) [µM] | NO-release concentrations ([1]; 60 min) [µM] | NO-release concentrations ([1]; 90 min) [µM] | NO-release concentrations ([1]; 120 min) [µM] | inhibition at 1 µM ([2]; Homo sapiens, SW-620, 1 μM) [%] | inhibition at 1 µM ([3]; Homo sapiens, U-87 MG, 1 μM) [%] | inhibition at 1 µM ([4]; Homo sapiens, 1 μM) [%] | growth of malignant brain gliomas in mice [5] | brain weight [5] | tumor volume [5] | bioluminescence signal intensity of gliomas [5] | further results
1 | C=C[C@]1(C)CC[C@@H](C(=C)CN(C)CCOC(=O)CCCC(=O)OCC#CCOc2no[n+]([O-])c2S(=O)(=O)c2ccccc2)C[C@H]1C(=C)CCl [Example 4] | 369 ± 13 | 719 ± 17 | much better than the model group | 12.53 | 14.80 | 19.55 | 23.6 | 42.31 | 66.97 | 93.18 | 47.5 ± 3.7 | 55.5 ± 1.9 | 48.7 ± 2 | effectively inhibited | significantly lighter than that of the model group | significantly smaller than that in the model group | declines dramatically | IC50 ([2]; Homo sapiens, SW-620): 858 ± 33 nM; blocking of tumor growth ([5]; last week of administration (3 weeks)): > 90%
2 | C=C[C@]1(C)CC[C@@H](C(=C)C)C[C@H]1C(=C)C [β-elemene] |  |  | much better than the model group |  |  |  |  |  |  |  |  |  |  | effectively inhibited | significantly lighter than that of the model group | significantly smaller than that in the model group | declines dramatically | Inhibitory rates against tumor cell lines ([2]; 1 μM): 2.5 ± 4.1%; IC50 [2]: > 100000 nM; Inhibitory rates against tumor cell lines ([3]; 1 μM): 4.3 ± 2.2%; IC50 [3]: > 100000 nM; Inhibitory rates against tumor cell lines ([4]; 1 μM): 3.2 ± 0.7%; IC50 [4]: > 100000 nM; inhibitory activity (bioluminescence signal of glioma) ([5]; first week of administration): > 20%
3 | C=C[C@]1(C)CC[C@@H](C(=C)CN2CCN(CCOC(=O)CCC(=O)OCC#CCOc3no[n+]([O-])c3S(=O)(=O)c3ccccc3)CC2)C[C@H]1C(=C)CCl [Example 23, 4-((4-((4-(2-(4-(2-((1R,3R,4S)-3-(3-chloroprop-1-en-2-yl)-4-methyl-4-vinylcyclohexyl)allyl)piperazin-1-yl)ethyoxyl)-4-oxobutanoyl)oxy)but-2-yn-1-yl)oxy)-3-(phenylsulfonyl)-1,2,5-oxadiazole 2-oxide] |  |  |  | 4.74 | 5.95 | 7.49 | 7.63 | 8.44 | 13.57 | 17.82 | 21.2 ± 2.1 | 33.4 ± 1.5 | 30.3 ± 2.9 |  |  |  |  | 
4 | C=C[C@]1(C)CC[C@@H](C(=C)CN2CCN(CCOC(=O)CCC(=O)OCCOc3no[n+]([O-])c3S(=O)(=O)c3ccccc3)CC2)C[C@H]1C(=C)CCl [Example 21, 4-(2-((4-(2-(4-(2-((1R,3R,4S)-3-(3-chloroprop-1-en-2-yl)-4-methyl-4-vinylcyclohexyl)allyl)piperazin-1-yl)ethyoxyl)-4-oxobutanoyl)oxy)ethyoxyl)-3-(phenylsulfonyl)-1,2,5-oxadiazole 2-oxide] | 926 ± 52 |  |  | 0.08 | 0.41 | 0.99 | 1.64 | 2.98 | 6.43 | 10.20 | 43.6 ± 2.5 | 52.6 ± 1 | 47.3 ± 2.6 |  |  |  |  | 

Now from value to molecule, other results behind:

Row | IC50 ([3]; Homo sapiens, U-87 MG) [nM] | IC50 ([4]; Homo sapiens) [nM] | living and physical conditions of mice [5] | Compound | NO-release concentrations ([1]; 5 min) [µM] | NO-release concentrations ([1]; 10 min) [µM] | NO-release concentrations ([1]; 20 min) [µM] | NO-release concentrations ([1]; 30 min) [µM] | NO-release concentrations ([1]; 60 min) [µM] | NO-release concentrations ([1]; 90 min) [µM] | NO-release concentrations ([1]; 120 min) [µM] | inhibition at 1 µM ([2]; Homo sapiens, SW-620, 1 μM) [%] | inhibition at 1 µM ([3]; Homo sapiens, U-87 MG, 1 μM) [%] | inhibition at 1 µM ([4]; Homo sapiens, 1 μM) [%] | growth of malignant brain gliomas in mice [5] | brain weight [5] | tumor volume [5] | bioluminescence signal intensity of gliomas [5] | further results
5 | 2160 ± 548 | 1050 ± 13 |  | C=C[C@]1(C)CC[C@@H](C(=C)CN2CCC(COC(=O)CCCC(=O)OCC#CCOc3no[n+]([O-])c3S(=O)(=O)c3ccccc3)CC2)C[C@H]1C(=C)CCl [Example 16, 4-((4-((5-((1-(2-((1R,3R,4S)-3-(3-chloroprop-1-en-2-yl)-4-methyl-4-vinylcyclohexyl)allyl)piperidin-4-yl)methoxyl)-5-oxopentanoyl)oxy)but-2-yn-1-yl)oxy)-3-(phenylsulfonyl)-1,2,5-oxadiazole 2-oxide] | 16.99 | 18.93 | 22.62 | 27.04 | 42.47 | 64.24 | 86.29 | 39.8 ± 1.9 | 52.2 ± 3.4 | 52.3 ± 1.1 |  |  |  |  | 
6 |  | 1040 ± 33 |  | C=C[C@]1(C)CC[C@@H](C(=C)CN2CCC(COC(=O)CCC(=O)OCC#CCOc3no[n+]([O-])c3S(=O)(=O)c3ccccc3)CC2)C[C@H]1C(=C)CCl [Example 15, 4-((4-((4-((1-(2-((1R,3R,4S)-3-(3-chloroprop-1-en-2-yl)-4-methyl-4-vinylcyclohexyl)allyl)piperidin-4-yl)methoxyl)-4-oxobutanoyl)oxy)but-2-yn-1-yl)oxy)-3-(phenylsulfonyl)-1,2,5-oxadiazole 2-oxide] | 8.67 | 10.07 | 12.979 | 15.92 | 25.47 | 36.31 | 48.15 | 31.3 ± 0.3 | 40.5 ± 3.3 | 45.9 ± 1.4 |  |  |  |  | 

From patent publication US12624012B2, “14-chloro-β-elemene nitric oxide donor derivative and preparation method and use thereof” (HANGZHOU NORMAL UNIVERSITY, priority 2021, dated 2026)
